One may read the TGI as the concentration at which net growth stops. A low value points to greater sensitivity of the cells.

Holding throughout (assay): DTP human tumour cell line panel, 48 h
Assay [1] has as its system A549 NSCLC.
For assay [2], the system named is EKVX NSCLC.
Assay [3] concerns HCC-2998 colon.
Assay [4] has as its system HL-60(TB) leukemia.
The subject of assay [5] is OVCAR-5 ovarian.
Assay [6] relates to RPMI-8226 leukemia.
Assay [7] concerns SN12C renal.
The test system of assay [8] is SNB-19 CNS.
Assay [9] has as its system UO-31 renal.
For assay [10], the system named is T-47D breast.

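Exposure lasted 48 hours, with cells grown in 96-well plates and compounds tested at five concentrations. TGI: total growth inhibition.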 Peptide text beside a SMILES is read from it. * marks the point of attachment. OSu = O=C1CCC(=O)N1O*; OBn = c1ccc(CO*)cc1; Bn = c1ccc(C*)cc1

As to `CC(C)=CCC/C(C)=C/CC/C(C)=C/CSc1ccc(Cl)cc1C(=O)O`, the concentration for total growth inhibition (TGI) in assay [1] turned out to be 30.3 µM; in assay [2], 37 µM; in assay [3], 34.7 µM; in [4] it was 50.8 µM; in [5] it was 36.9 µM; in assay [6] it was 55.6 µM. Besides, the TGI turned out to be 48 µM in assay [7], 34.4 µM in assay [8] and 31.4 µM in [9].
`Cc1nc2sccn2c1C(=O)OCCOCCOCCOCCOC(=O)c1c(C)nc2sccn12`: the TGI was > 100 µM in assay [1]; > 100 µM in [2]; > 100 µM in [3]; 34 µM in [4]; > 100 µM in assay [5]; > 100 µM in [6]. Besides, the TGI in assay [7], in [8] and in [9] was > 100 µM throughout.
Consider `C/C(NC(=O)c1ccccc1)=C(/C(=O)c1ccccc1)[C@@H]1OC(C)(C)O[C@@H]1[C@H]1COC(C)(C)O1`, for which the concentration for total growth inhibition (TGI) is > 100 µM in assay [1]; 48.4 µM in assay [2]; 87.6 µM in assay [3]; 43.8 µM in assay [4]; > 100 µM in [5]; 47.7 µM in [6]. Also, the TGI in assay [7] was 60.4 µM; in assay [8], > 100 µM; in assay [9], 30.1 µM.
Regarding `C=CCc1cccc2cc(C(=O)Nc3nc(C45CC6CC(CC(C6)C4)C5)cs3)c(=O)oc12`, the TGI in assay [1], in assay [2], in assay [3], in assay [4], in [5] and in [6] was > 100 µM throughout. In addition, the TGI in [7] was > 100 µM; in assay [8] it was 64.2 µM; in assay [9], 25.2 µM.
Turning to `Cc1ccc(Nc2ccc(Nc3ccc(C)cc3S(=O)(=O)O)c3c2C(=O)c2ccccc2C3=O)c(S(=O)(=O)O)c1`, the TGI in [1], in [2], in assay [3], in [4], in assay [6] and in assay [7] was > 100 µM throughout. For the same molecule, the TGI in [8] and in assay [9] was > 100 µM in each case.
In the case of `Cc1oc2c(C)c3oc(=O)cc(C)c3cc2c1CN`, the TGI in assay [1] is > 100 µM; in assay [2] it was > 100 µM; in assay [3] it was 64.7 µM; in assay [4] it was > 100 µM; in assay [5] it was > 100 µM; in assay [6], > 100 µM. In addition, the TGI in assay [7], in [8] and in [9] was > 100 µM each time.
In the case of `NC(CNc1ccc(O)cc1)C(=O)O` (stereo not drawn), the TGI was > 100 µM in assay [1]; > 100 µM in assay [2]; 95.7 µM in [4]; > 100 µM in [5]; > 100 µM in assay [6]; > 100 µM in assay [7]. Further, the TGI in assay [8] and in [9] was > 100 µM each time.
With `Cc1nn(-c2ccccc2)c2c1N=C(C(=O)O)CC(c1ccccc1)=N2`, the TGI in [1], in assay [3], in [4], in assay [6], in assay [7] and in assay [8] was > 10 µM each time. In addition, the TGI in assay [10] is > 10 µM.
Turning to `CC(C)CC(NC(=O)C(N)CCC(=O)OCc1ccccc1)C(=O)NC(COCc1ccccc1)C(=O)NC(Cc1ccccc1)C(=O)ON1C(=O)CCC1=O` (stereo not drawn) (H-E(OBn)LS(Bn)F-OSu; configuration not given here), the TGI in [1] was > 100 µM; in assay [2], > 100 µM; in assay [5] it was 66.9 µM; in assay [6] it was 61.4 µM; in [7], > 100 µM; in [8], 95.1 µM. In assay [9], the TGI is 59 µM.
Regarding `CCCN1C(=O)/C(=C(/O)C(=O)OCC)C(c2ccc(OC)c(OC)c2)C1=O` (stereo not drawn), the TGI in [1], in assay [2], in [3], in assay [4], in [5] and in [6] was > 100 µM in each case. The TGI in assay [7], in assay [8] and in assay [9] was > 100 µM in each case.
`CC(C)(C)OC(=O)NCCNC(=O)CN(CC(=O)O)C1CCCCC1N(CC(=O)O)CC(=O)O` (stereo not drawn): the total growth inhibition concentration (TGI) in [1], in assay [3], in assay [4], in assay [5], in assay [6] and in [7] was > 100 µM each time. Also, the concentration for total growth inhibition (TGI) in assay [8], in assay [10] and in [9] was > 100 µM each time.
Take `O=C1C=C(NCCc2cc(Br)c(O)c(Br)c2)C(=O)c2[nH]cnc21`: the TGI in assay [1] is > 100 µM; in [2] it was > 100 µM; in [3], > 100 µM; in assay [5], 67.2 µM; in assay [7], > 100 µM; in assay [8] it was > 100 µM. For the same molecule, the TGI in assay [10] is 88.8 µM; in [9], > 100 µM.
With `CN1N(c2ccccc2)C(=O)C2=NC=C(C#N)C(=N)C21C` (stereo not drawn), the TGI in [1], in assay [2], in assay [3], in assay [5], in [6] and in assay [7] was > 100 µM in each case. The TGI in assay [8] and in assay [9] was > 100 µM in each case.
In the case of `CC(C)(C)c1cc(C2NC(=O)NC2=O)cc(C(C)(C)C)c1O` (stereo not drawn), the TGI in [1], in [2], in assay [5], in assay [6], in assay [8] and in assay [10] was > 100 µM throughout. Further, in [9], the TGI was > 100 µM.
`Cc1cnc2[nH]c(-c3cccc(Cl)c3)cc(=O)c2c1`: the TGI in assay [1] was > 100 µM; in assay [2] it was > 100 µM; in [4], 0.609 µM; in [5] it was > 100 µM; in assay [7] it was > 100 µM; in assay [8], 41.3 µM. Moreover, the TGI in assay [9] is > 100 µM.

These data come from PubChem BioAssay (NCI).
